Here are results for 4 compounds from patent publication US8946477B2, “Solid forms of an N-(phenylmethyl) propanamide derivative and processes of preparation” (Medichem, S.A., priority 2009, dated 2015).

Molecules are shown by their SMILES.

The nature of this data set: Stability studies: storage under standard conditions, then XRD analysis. The following applies: for XRD after storage (polymorphic form): stored at room temperature, air atmosphere. The format is physicochemical.

For `COC[C@@H](NC(C)=O)C(=O)NCc1ccccc1` [amorphous lacosamide, (2R)-2-(acetylamino)-3-methoxy-N-(phenylmethyl)propanamide], for the setting “ambient conditions and air atmosphere for at least 250 days, more typically at least 300 days”, the stability on storage result is listed as “substantially stable”. The “XRD after storage (FIG. 13 vs FIG. 12)” value (room temperature, normal pressure, air atmosphere for 304 days (Example 63)) is given as “retention of amorphous Form”.
With `COC[C@@H](NC(C)=O)C(=O)NCc1ccccc1` [Example 42, (2R)-2-(acetylamino)-3-methoxy-N-(phenylmethyl)propanamide], the “XRD after storage (polymorphic form)” value (normal pressure, storing time 290 days) was “Form III”.
As to `COC[C@@H](NC(C)=O)C(=O)NCc1ccccc1` [lacosamide Form III, (2R)-2-(acetylamino)-3-methoxy-N-(phenylmethyl)propanamide], for the setting “ambient conditions and air atmosphere for at least 250 days, more typically at least 290 days”, the “polymorphic stability on storage” value is recorded as “substantially no polymorphic interconversion is observed”.
Regarding `COC[C@@H](NC(C)=O)C(=O)NCc1ccccc1` [Example 41, (2R)-2-(acetylamino)-3-methoxy-N-(phenylmethyl)propanamide], the “XRD after storage (polymorphic form)” value (normal pressure, storing time 295 days) is given as “Form III”.
